# Test results from BindingDB's records for doi:10.1021/jm00147a030 (1985).
# Molecular target: Angiotensin-converting enzyme (Cavia porcellus)
# Experiment: In vitro inhibitory activity against Angiotensin I converting enzyme from unpurified guinea pig serum
row,Compound,IC50 [nM]
1,CCOC(=O)C(CCc1ccccc1)OC(C)C(=O)N1C(C(=O)O)CC2CCCCC21 (stereo not given),24
2,CC(OC(CCc1ccccc1)C(=O)O)C(=O)N1Cc2ccccc2CC1C(=O)O (stereo not given),86
3,CCOC(=O)C(CCc1ccccc1)SC(C)C(=O)N1CCCC1C(=O)O (stereo not given),2900
4,CCOC(=O)C(CCc1ccccc1)OC(C)C(=O)N1CCCC1C(=O)O (stereo not given),220
5,CCOC(=O)C(CCc1ccccc1)OC(C)C(=O)N1Cc2ccccc2CC1C(=O)O (stereo not given),14
6,CCOC(=O)C(CCc1ccccc1)[S+]([O-])C(C)C(=O)N1C2CCCCC2C[C@H]1C(=O)O (stereo not given in full),220
7,CCOC(=O)C(CCc1ccccc1)SC(C)C(=O)N1CSC[C@@H]1C(=O)O (stereo not given in full),4800

# Continued by falling IC50, values first:
row,IC50 [nM],Compound
1,580,CC(SC(CCc1ccccc1)C(=O)O)C(=O)N1CCC[C@H]1C(=O)O (stereo not given in full)
2,460,CCOC(=O)C(CCc1ccccc1)SC(C)C(=O)N1Cc2ccccc2C[C@H]1C(=O)O (stereo not given in full)
3,140,CC(SC(CCc1ccccc1)C(=O)O)C(=O)N1C2CCCCC2C[C@H]1C(=O)O (stereo not given in full)
